The values that follow come from patent publication US7410998B2, “Inhibitors of NADH:ubiquinone oxidoreductase” (The Scripps Research Institute, priority 2000, dated 2008).

The first experiment concerns Complex I.
Test: not given
As to conditions: natural products from Cubé resin; cited from earlier work.
With `COc1cc(OC)c(C2COc3c(ccc4c3C=CC(C)(C)O4)C2=O)cc1OC` (centres unmarked) [lonchocarpusone], the IC50 (as a rule, the concentration that inhibits the measured activity by half) is 3.3 µM.
As to `COc1cc2c(cc1OC)[C@@H]1C(=O)c3ccc4c(c3O[C@@H]1CO2)C=CC(C)(C)O4` [deguelin], the IC50 is 0.0069 µM.

Another experiment relates to Complex I. The experiment in a line: Complex I activity in in vitro assays (literature, Fang/Casida). It is filed as biochemical. The note with it: ratio of IC50 values. The text has this: Novel lead compounds were identified through the screening of natural product-like combinatorial libraries. Separation of the constituents of this resin provided the major components rotenone (1, FIG. 2) and deguelin (7, FIG. 3) along with minor constituents, including dehydrodeguelin (8), oxadehydrodeguelin (9), lonchocarpusone (10), 4-hydroxylonchocarpene (11), 4-hydroxy-3-methoxylonchocarpene (12), stilbenes 13-15, and isoflavones 16-18 (FIG. 3) among others. […] Despite the diversity in these bridging units, all of the compounds (7-18) inhibited Complex I activity in in vitro assays (Fang, N.; Casida, J. E. J. Nat. Prod. 1999, 62, 205-210; Fang, N.; et al. Chem. Res. Toxicol. 1997, 10, 853-858). […] Given this effect, it was envisioned that screening a benzopyran-based combinatorial library wherein this “bridge” unit was varied (i.e. structure 19, FIG. 3) might lead to the identification of interesting structure activity relationships (SAR), and potentially to new lead compounds in this series.
In the case of `COc1cc2c(cc1OC)[C@@H]1C(=O)c3ccc4c(c3O[C@@H]1CO2)C=CC(C)(C)O4` [deguelin], the “fold more active than lonchocarpusone” value is reported as around 500 fold.

For the next experiment, the target named is NADH:ubiquinone oxidoreductase (Complex I) (Bos taurus, UniProt P03887+P17694+P42026). The experiment in a line: inhibitory potency for NADH:ubiquinone oxidoreductase activity in vitro using bovine heart electron transport particles. The experiment is classed as biochemical. As to conditions: bovine heart electron transport particles. On the procedure: This primary library was screened for inhibitory potency against NADH:ubiquinone oxidoreductase activity as described below. […] As described below, a series of focused libraries were then synthesized using a combination of solid and solution phase chemistry in an attempt to evaluate particular structural sub-regions (denoted I-IV in FIG. 9) of the lead structure, thus allowing structure activity relationships to be developed.
Chain of NADH:ubiquinone oxidoreductase (Complex I) (P03887 whole entry): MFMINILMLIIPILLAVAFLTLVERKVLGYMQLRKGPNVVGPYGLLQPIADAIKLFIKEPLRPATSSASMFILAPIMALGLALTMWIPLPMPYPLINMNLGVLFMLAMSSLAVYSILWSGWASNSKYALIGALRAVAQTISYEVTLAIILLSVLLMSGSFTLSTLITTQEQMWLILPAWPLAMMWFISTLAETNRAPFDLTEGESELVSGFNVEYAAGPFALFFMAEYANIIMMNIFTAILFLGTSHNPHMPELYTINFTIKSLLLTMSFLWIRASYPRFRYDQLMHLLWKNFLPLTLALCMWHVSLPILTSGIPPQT
Chain of NADH:ubiquinone oxidoreductase (Complex I) (P42026 38-216): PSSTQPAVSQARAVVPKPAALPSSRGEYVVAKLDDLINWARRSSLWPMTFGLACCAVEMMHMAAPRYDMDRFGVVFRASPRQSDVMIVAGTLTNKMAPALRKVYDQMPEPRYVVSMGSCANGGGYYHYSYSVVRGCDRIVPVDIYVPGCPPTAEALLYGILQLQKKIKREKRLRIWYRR
Chain of NADH:ubiquinone oxidoreductase (Complex I) (P17694 34-463): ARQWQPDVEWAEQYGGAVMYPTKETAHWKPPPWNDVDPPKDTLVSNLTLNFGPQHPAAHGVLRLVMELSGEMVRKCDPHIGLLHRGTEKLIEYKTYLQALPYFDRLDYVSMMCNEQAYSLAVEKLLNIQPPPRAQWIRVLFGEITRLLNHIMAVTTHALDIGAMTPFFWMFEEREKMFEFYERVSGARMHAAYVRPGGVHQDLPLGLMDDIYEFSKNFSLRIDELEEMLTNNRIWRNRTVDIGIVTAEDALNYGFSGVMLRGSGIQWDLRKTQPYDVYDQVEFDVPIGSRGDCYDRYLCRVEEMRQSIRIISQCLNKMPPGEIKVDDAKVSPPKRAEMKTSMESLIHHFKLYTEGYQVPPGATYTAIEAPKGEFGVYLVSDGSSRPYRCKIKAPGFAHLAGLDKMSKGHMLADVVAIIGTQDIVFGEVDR
SAR optimization was carried out on each of the four regions (I-IV) of interest guided by the inhibitory potency for NADH:ubiquinone oxidoreductase activity in vitro using bovine heart electron transport particles (see Singer (Singer, T. P. (1974). In Methods of Biochemical Analysis (Glick, D. ed., Wiley New York), 22, pp. 123-175) for details).
FIG. 15 is a graphical summary of structure activity trends observed for benzopyran-based inhibitors of NADH:ubiquinone oxidoreductase. SAR optimization was carried out on each of the four regions (I-IV) of interest guided by the inhibitory potency for NADH:ubiquinone oxidoreductase activity in vitro using bovine heart electron transport particles (see Singer (Singer, T.P. (1974). In Methods of Biochemical Analysis (Glick, D. ed., Wiley New York), 22, pp. 123-175) for details).
For `COc1cc(CC(=C(Cl)Cl)c2ccc3c(c2)CCC(C)(C)O3)cc(OC)c1OC` [Compound 168], the IC50 amounted to 2.7 µM.
Turning to `COc1cc(CC(=C(F)F)c2ccc3c(c2)CCC(C)(C)O3)cc(OC)c1OC` [Compound 169], the IC50 was found to be 0.048 µM.
Consider `C=C(Cc1cc(OC)c(OC)c(OC)c1)c1ccc2c(c1)C=CC(C)(C)O2` [Compound 163], for which the IC50 was found to be 0.019 µM.
As to `COc1cc(COC(=O)c2ccc3c(c2)CCC(C)(C)O3)cc(OC)c1OC` [Compound 140], the IC50 was found to be 0.053 µM.
For the molecule `COc1cc(CC(=O)c2ccc3c(c2)C=CC(C)(C)O3)cc(OC)c1OC` [Compound 158], the IC50 turned out to be 0.039 µM.
With `COc1cc(CC(=O)c2ccc3c(c2)CCC(C)(C)O3)cc(OC)c1OC` [Compound 165], the IC50 amounted to 0.024 µM.
On to `COc1ccc(COC(=O)c2ccc3c(c2)C=CC(C)(C)O3)cc1OC` [Compound 42], for which the IC50 is 0.22 µM.
Regarding `C=C(Cc1cc(OC)c(OC)c(OC)c1)c1ccc2c(c1)CCC(C)(C)O2` [Compound 167], the IC50 is 0.018 µM.
As for `COc1cc(CSc2ccc3c(c2)C=CC(C)(C)O3)cc(OC)c1OC` [Compound 178], the IC50 is 0.043 µM.
As for `COc1cc(COC(=O)c2ccc3c(c2)C=CC(C)(C)O3)cc(OC)c1OC` [Compound 55], the IC50 was 0.055 µM.

The same experiment, now with this note: relative to parent/lead compound.
Take `COc1cc(CC(=O)c2ccc3c(c2)CCC(C)(C)O3)cc(OC)c1OC` [Compound 165]: the “inhibitory activity” value was “almost twice as active as the parent olefin”.
